{
  "source": "patent US20240325398A1",
  "about": "“COMBINATION THERAPIES” (Infinity Pharmaceuticals, Inc., priority 2014, published 2024)",
  "key": {"[1]": {"test_system": "Farage", "test": "Combination study, ATPLite 72 h, dose matrix (Synergy Score, CI50)", "details": "combination with Compound 1; Farage; 72 h"}, "[2]": {"test_system": "OCI-Ly3", "test": "Combination study, ATPLite 72 h, dose matrix (Synergy Score, CI50)", "details": "combination with Compound 1; OCI-Ly3; 72 h"}, "[3]": {"test_system": "SU-DHL-10-epst", "test": "Combination study, ATPLite 72 h, dose matrix (Synergy Score, CI50)", "details": "combination with Compound 1, 72 h"}, "[4]": {"test_system": "OCI-Ly7", "test": "Combination study, ATPLite 72 h, dose matrix (Synergy Score, CI50)", "details": "combination with Compound 1, 72 h"}, "[5]": {"test_system": "RL", "test": "Combination study, ATPLite 72 h, dose matrix (Synergy Score, CI50)", "details": "combination with Compound 1, 72 h"}, "[6]": {"test_system": "OMP-2", "test": "Combination study, ATPLite 72 h, dose matrix (Synergy Score, CI50)", "details": "combination with Compound 1; OPM-2"}, "[7]": {"test": "Combination study, ATPLite 72 h, dose matrix (Synergy Score, CI50)", "details": "combination with Compound 1; OPM-2"}, "[8]": {"test_system": "KARPAS-422", "test": "Combination study, ATPLite 72 h, dose matrix (Synergy Score, CI50)", "details": "combination with Compound 1, 72 h"}, "[9]": {"test_system": "KARPAS-299", "test": "Combination study, ATPLite 72 h, dose matrix (Synergy Score, CI50)", "details": "combination with Compound 1"}, "[10]": {"test_system": "TMD8", "test": "Combination study, ATPLite 72 h, dose matrix (Synergy Score, CI50)", "details": "combination with Compound 1; TMD8; 72 h"}, "[11]": {"test_system": "U-2932", "test": "Combination study, ATPLite 72 h, dose matrix (Synergy Score, CI50)", "details": "combination with Compound 1, 72 h"}, "[12]": {"test_system": "Mino", "test": "Combination study, ATPLite 72 h, dose matrix (Synergy Score, CI50)", "details": "combination with Compound 1", "description": "Cells are thawed from a liquid nitrogen preserved state. Once cells have been expanded and divide at their expected doubling times, screening begins. Cells are seeded in growth media in either black 1536-well or 384-well tissue culture treated plates. Cells are then equilibrated in assay plates via centrifugation and placed in incubators attached to the Dosing Modules at 37° C. for 24 hours before treatment. […] These Tzero (To) plates are read using ultra-sensitive luminescence on Envision plate readers (Perkin Elmer). Treated assay plates are incubated with compound for 72 hours. After 72 hours, plates are developed for endpoint analysis using ATPLite. All data points are collected via automated processes, quality controlled and analyzed using Zalicus software.\nwhere T is treated cell count and V is untreated (vehicle) cell count (at 72 hours). I ranges from 0% (when T=V) to 100% (when T=0). […] The measure of effect in the experiment can be the inhibition of cellular response relative to the untreated level (vehicle alone). […] The inhibition ranges from 0% at the untreated level to 100% when T=0. Inhibition levels are negative for agents that actually increase levels. Other effect measures, such as an activity ratio r=T/V may be more appropriate for some assays. When activity ratios (e.g, fold increase over stimulated control) are being used, the effect can be measured using an induction 1=ln(T/V). With this definition, all effect expressions are the same as for inhibition.\nGrowth Inhibition (GI) is used as a measure of cell viability. […] A GI reading of 100% represents complete growth inhibition—T72 compound-treated and T0 vehicle signals are matched. […] A GI reading of 200% represents complete death of all cells in the culture well. Compounds reaching an activity plateau of GI 200% are considered cytotoxic. GI is calculated by applying the following test and equation:\nCombination analysis data were collected in a 6×6 dose matrix. Synergy is calculated by comparing a combination's response to those of its single compound, against the drug-with-itself dose-additive reference model. Deviations from dose additivity may be assessed visually on an isobologram or numerically with a Combination Index (CI). […] Additive effect is CI=1.0. […] Antagonistic effect is CI>1.0.\nTo measure combination effects in excess of Loewe additivity, a scalar measure to characterize the strength of synergistic interaction termed the Synergy Score is devised. The Synergy Score is calculated as:\nThe fractional inhibition for each component agent and combination point in the matrix is calculated relative to the median of all vehicle-treated control wells. The Synergy Score equation integrates the experimentally-observed activity volume at each point in the matrix in excess of a model surface numerically derived from the activity of the component agents using the Loewe model for additivity. Additional terms in the Synergy Score equation (above) are used to normalize for various dilution factors used for individual agents and to allow for comparison of synergy scores across an entire experiment. The inclusion of positive inhibition gating or an Idata multiplier removes noise near the zero effect level, and biases results for synergistic interactions at that occur at high activity levels.\nLoewe Volume (Loewe Vol) is used to assess the overall magnitude of the combination interaction in excess of the Loewe additivity model. Loewe Volume is particularly useful when distinguishing synergistic increases in a phenotypic activity (positive Loewe Volume) versus synergistic antagonisms (negative Loewe Volume). […] This model defines additivity as a non-synergistic combination interaction where the combination dose matrix surface should be indistinguishable from either drug crossed with itself."}, "[13]": {"test_system": "Jeko-1", "test": "Combination study, ATPLite 72 h, dose matrix (Synergy Score, CI50)", "details": "combination with Compound 1"}, "[14]": {"test_system": "HBL-1", "test": "Combination study, ATPLite 72 h, dose matrix (Synergy Score, CI50)", "details": "combination with Compound 1, 72 h"}, "[15]": {"test_system": "DOHH-2", "test": "Combination study, ATPLite 72 h, dose matrix (Synergy Score, CI50)", "details": "combination with Compound 1, 72 h"}, "[16]": {"test_system": "NCI-H929", "test": "Combination study, ATPLite 72 h, dose matrix (Synergy Score, CI50)", "details": "combination with Compound 1"}, "[17]": {"test_system": "RPMI-8226", "test": "Combination study, ATPLite 72 h, dose matrix (Synergy Score, CI50)", "details": "combination with Compound 1"}, "[18]": {"test_system": "HH", "test": "Combination study, ATPLite 72 h, dose matrix (Synergy Score, CI50)", "assay_type": "cell-based", "details": "combination with Compound 1", "experimental": "The method is described as follows.\nAdditive effect is CI=1.0. […] Antagonistic effect is CI>1.0.\nThe Synergy Score is calculated as: […]"}, "[19]": {"test_system": "WSU-NHL", "test": "Combination study, ATPLite 72 h, dose matrix (Synergy Score, CI50)", "details": "combination with Compound 1, 72 h"}, "[20]": {"test_system": "GRANTA-519", "test": "Combination study, ATPLite 72 h, dose matrix (Synergy Score, CI50)", "details": "combination with Compound 1"}, "[21]": {"test_system": "SU-DHL-4-epst", "test": "Combination study, ATPLite 72 h, dose matrix (Synergy Score, CI50)", "details": "combination with Compound 1, 72 h"}},
  "note": "Counter-ions that a name gives are not always drawn.",
  "data": [
    {"smiles": "COc1cccc2c1C(=O)c1c(O)c3c(c(O)c1C2=O)C[C@@](O)(C(=O)CO)C[C@@H]3O[C@H]1C[C@H](N)[C@H](O)[C@H](C)O1", "note": "[Doxorubicin HCl]", "values": [
      {"measurement": "CI50 growth inhibition", "setting": "[1]", "result": "U (U=0.7 to <1)"},
      {"measurement": "CI50 inhibition", "setting": "[1]", "result": "T (T=0.5 to <0.7)"},
      {"measurement": "Synergy Score growth inhibition", "setting": "[1]", "result": "A3 (A3=>3)"},
      {"measurement": "Synergy Score inhibition", "setting": "[1]", "result": "A1 (A1=0.0001 to <1)"},
      {"measurement": "CI50 growth inhibition", "setting": "[2]", "result": "U (U=0.7 to <1)"},
      {"measurement": "CI50 inhibition", "setting": "[2]", "result": "W (W=≥1)"},
      {"measurement": "Synergy Score growth inhibition", "setting": "[2]", "result": "A2 (A2=1 to <3)"},
      {"measurement": "Synergy Score inhibition", "setting": "[2]", "result": "A1 (A1=0.0001 to <1)"},
      {"measurement": "CI50 growth inhibition", "setting": "[3]", "result": "T (T=0.5 to <0.7)"},
      {"measurement": "CI50 inhibition", "setting": "[3]", "result": "T (T=0.5 to <0.7)"},
      {"measurement": "Synergy Score growth inhibition", "setting": "[3]", "result": "A3 (A3=>3)"},
      {"measurement": "Synergy Score inhibition", "setting": "[3]", "result": "A2 (A2=1 to <3)"},
      {"measurement": "CI50 growth inhibition", "setting": "[4]", "result": "S (S=0.01 to <0.5)"},
      {"measurement": "CI50 inhibition", "setting": "[4]", "result": "S (S=0.01 to <0.5)"},
      {"measurement": "Synergy Score growth inhibition", "setting": "[4]", "result": "A3 (A3=>3)"},
      {"measurement": "Synergy Score inhibition", "setting": "[4]", "result": "A2 (A2=1 to <3)"},
      {"measurement": "CI50 growth inhibition", "setting": "[5]", "result": "U (U=0.7 to <1)"},
      {"measurement": "CI50 inhibition", "setting": "[5]", "result": "W (W=≥1)"},
      {"measurement": "Synergy Score growth inhibition", "setting": "[5]", "result": "A2 (A2=1 to <3)"},
      {"measurement": "Synergy Score inhibition", "setting": "[5]", "result": "A1 (A1=0.0001 to <1)"},
      {"measurement": "CI50 inhibition", "setting": "[6]", "result": "W (W=≥1)"},
      {"measurement": "Synergy Score growth inhibition", "setting": "[6]", "result": "A2 (A2=1 to <3)"},
      {"measurement": "Synergy Score inhibition", "setting": "[6]", "result": "A1 (A1=0.0001 to <1)"},
      {"measurement": "CI50 growth inhibition", "setting": "[7]", "result": "W (W=≥1)"},
      {"measurement": "CI50 growth inhibition", "setting": "[8]", "result": "W (W=≥1)"},
      {"measurement": "CI50 inhibition", "setting": "[8]", "result": "W (W=≥1)"},
      {"measurement": "Synergy Score growth inhibition", "setting": "[8]", "result": "A1 (A1=0.0001 to <1)"},
      {"measurement": "Synergy Score inhibition", "setting": "[8]", "result": "A1 (A1=0.0001 to <1)"},
      {"measurement": "CI50 growth inhibition", "setting": "[9]", "result": "U (U=0.7 to <1)"},
      {"measurement": "CI50 inhibition", "setting": "[9]", "result": "U (U=0.7 to <1)"},
      {"measurement": "Synergy Score growth inhibition", "setting": "[9]", "result": "A2 (A2=1 to <3)"},
      {"measurement": "Synergy Score inhibition", "setting": "[9]", "result": "A1 (A1=0.0001 to <1)"},
      {"measurement": "CI50 growth inhibition", "setting": "[10]", "result": "T (T=0.5 to <0.7)"},
      {"measurement": "CI50 inhibition", "setting": "[10]", "result": "T (T=0.5 to <0.7)"},
      {"measurement": "Synergy Score growth inhibition", "setting": "[10]", "result": "A3 (A3=>3)"},
      {"measurement": "Synergy Score inhibition", "setting": "[10]", "result": "A2 (A2=1 to <3)"},
      {"measurement": "CI50 growth inhibition", "setting": "[11]", "result": "U (U=0.7 to <1)"},
      {"measurement": "CI50 inhibition", "setting": "[11]", "result": "W (W=≥1)"},
      {"measurement": "Synergy Score growth inhibition", "setting": "[11]", "result": "A2 (A2=1 to <3)"},
      {"measurement": "Synergy Score inhibition", "setting": "[11]", "result": "A1 (A1=0.0001 to <1)"},
      {"measurement": "CI50 growth inhibition", "setting": "[12]", "result": "T (T=0.5 to <0.7)"},
      {"measurement": "CI50 inhibition", "setting": "[12]", "result": "T (T=0.5 to <0.7)"},
      {"measurement": "Synergy Score growth inhibition", "setting": "[12]", "result": "A3 (A3=>3)"},
      {"measurement": "Synergy Score inhibition", "setting": "[12]", "result": "A2 (A2=1 to <3)"},
      {"measurement": "CI50 growth inhibition", "setting": "[13]", "result": "T (T=0.5 to <0.7)"},
      {"measurement": "CI50 inhibition", "setting": "[13]", "result": "U (U=0.7 to <1)"},
      {"measurement": "Synergy Score growth inhibition", "setting": "[13]", "result": "A3 (A3=>3)"},
      {"measurement": "Synergy Score inhibition", "setting": "[13]", "result": "A1 (A1=0.0001 to <1)"},
      {"measurement": "CI50 growth inhibition", "setting": "[14]", "result": "S (S=0.01 to <0.5)"},
      {"measurement": "CI50 inhibition", "setting": "[14]", "result": "U (U=0.7 to <1)"},
      {"measurement": "Synergy Score growth inhibition", "setting": "[14]", "result": "A3 (A3=>3)"},
      {"measurement": "Synergy Score inhibition", "setting": "[14]", "result": "A1 (A1=0.0001 to <1)"},
      {"measurement": "CI50 growth inhibition", "setting": "[15]", "result": "T (T=0.5 to <0.7)"},
      {"measurement": "CI50 inhibition", "setting": "[15]", "result": "T (T=0.5 to <0.7)"},
      {"measurement": "Synergy Score growth inhibition", "setting": "[15]", "result": "A3 (A3=>3)"},
      {"measurement": "Synergy Score inhibition", "setting": "[15]", "result": "A2 (A2=1 to <3)"},
      {"measurement": "CI50 growth inhibition", "setting": "[16]", "result": "U (U=0.7 to <1)"},
      {"measurement": "CI50 inhibition", "setting": "[16]", "result": "U (U=0.7 to <1)"},
      {"measurement": "Synergy Score growth inhibition", "setting": "[16]", "result": "A3 (A3=>3)"},
      {"measurement": "Synergy Score inhibition", "setting": "[16]", "result": "A1 (A1=0.0001 to <1)"},
      {"measurement": "CI50 growth inhibition", "setting": "[17]", "result": "U (U=0.7 to <1)"},
      {"measurement": "CI50 inhibition", "setting": "[17]", "result": "W (W=≥1)"},
      {"measurement": "Synergy Score growth inhibition", "setting": "[17]", "result": "A3 (A3=>3)"},
      {"measurement": "Synergy Score inhibition", "setting": "[17]", "result": "A2 (A2=1 to <3)"},
      {"measurement": "CI50 growth inhibition", "setting": "[18]", "result": "W (W=≥1)"},
      {"measurement": "CI50 inhibition", "setting": "[18]", "result": "T (T=0.5 to <0.7)"},
      {"measurement": "Synergy Score growth inhibition", "setting": "[18]", "result": "A3 (A3=>3)"},
      {"measurement": "Synergy Score inhibition", "setting": "[18]", "result": "A2 (A2=1 to <3)"},
      {"measurement": "CI50 growth inhibition", "setting": "[19]", "result": "T (T=0.5 to <0.7)"},
      {"measurement": "CI50 inhibition", "setting": "[19]", "result": "S (S=0.01 to <0.5)"},
      {"measurement": "Synergy Score growth inhibition", "setting": "[19]", "result": "A3 (A3=>3)"},
      {"measurement": "Synergy Score inhibition", "setting": "[19]", "result": "A2 (A2=1 to <3)"},
      {"measurement": "CI50 growth inhibition", "setting": "[20]", "result": "S (S=0.01 to <0.5)"},
      {"measurement": "CI50 inhibition", "setting": "[20]", "result": "W (W=≥1)"},
      {"measurement": "Synergy Score growth inhibition", "setting": "[20]", "result": "A3 (A3=>3)"},
      {"measurement": "Synergy Score inhibition", "setting": "[20]", "result": "A1 (A1=0.0001 to <1)"},
      {"measurement": "CI50 growth inhibition", "setting": "[21]", "result": "U (U=0.7 to <1)"},
      {"measurement": "CI50 inhibition", "setting": "[21]", "result": "W (W=≥1)"},
      {"measurement": "Synergy Score growth inhibition", "setting": "[21]", "result": "A3 (A3=>3)"},
      {"measurement": "Synergy Score inhibition", "setting": "[21]", "result": "A2 (A2=1 to <3)"}
    ]}
  ]
}
